Assay results published in ChEMBL document CHEMBL4828744, “Design, synthesis and biological evaluation of pyridinylmethylenepiperidine derivatives as potent 5-HT1F receptor agonists for migraine therapy” (Eur J Med Chem, 2021).
The source made the active and inactive calls. The rule behind the calls is not given here.

Tests used:
[1] = biological target: 5-hydroxytryptamine receptor 2A (Homo sapiens, UniProt P28223); experiment: Binding affinity to human 5HT2A receptor
[2] = Clearance in Sprague-Dawley rat at 1 mg/kg, iv measured for 24 hrs by LC-MS/MS analysis; assay type: ADME, organism-based; details: in vivo
[3] = Cmax in Sprague-Dawley rat at 1 mg/kg, iv measured for 24 hrs by LC-MS/MS analysis; assay type: ADME, organism-based; design: route intravenous, dose 1 mg/kg, time 24 hrs; details: in vivo
[4] = biological target: 5-HT1A/5-HT1F (Homo sapiens) (UniProt P30939+P08908); experiment: Selectivity ratio of IC50 for human 5HT1A receptor to IC50 for human 5HT1F receptor; assay type: protein assay
[5] = biological target: T1, 5-hydroxytryptamine receptor 1F (Homo sapiens, UniProt P30939); experiment: Binding affinity to human 5HT1F receptor
T1 sequence (P30939 whole entry): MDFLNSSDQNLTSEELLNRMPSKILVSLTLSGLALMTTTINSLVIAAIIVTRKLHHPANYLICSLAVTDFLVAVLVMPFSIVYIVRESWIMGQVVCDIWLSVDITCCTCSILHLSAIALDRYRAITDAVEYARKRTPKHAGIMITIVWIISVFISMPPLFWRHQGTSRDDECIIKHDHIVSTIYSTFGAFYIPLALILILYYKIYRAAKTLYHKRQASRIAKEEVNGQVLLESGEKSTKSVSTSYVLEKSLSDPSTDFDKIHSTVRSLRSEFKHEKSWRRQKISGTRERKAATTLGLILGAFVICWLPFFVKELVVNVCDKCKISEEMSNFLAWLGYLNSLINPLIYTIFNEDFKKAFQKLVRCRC

[6] = biological target: T2, 5-hydroxytryptamine receptor 2C (Homo sapiens, UniProt P28335); experiment: Binding affinity to human 5HT2C receptor
T2 sequence (P28335 whole entry): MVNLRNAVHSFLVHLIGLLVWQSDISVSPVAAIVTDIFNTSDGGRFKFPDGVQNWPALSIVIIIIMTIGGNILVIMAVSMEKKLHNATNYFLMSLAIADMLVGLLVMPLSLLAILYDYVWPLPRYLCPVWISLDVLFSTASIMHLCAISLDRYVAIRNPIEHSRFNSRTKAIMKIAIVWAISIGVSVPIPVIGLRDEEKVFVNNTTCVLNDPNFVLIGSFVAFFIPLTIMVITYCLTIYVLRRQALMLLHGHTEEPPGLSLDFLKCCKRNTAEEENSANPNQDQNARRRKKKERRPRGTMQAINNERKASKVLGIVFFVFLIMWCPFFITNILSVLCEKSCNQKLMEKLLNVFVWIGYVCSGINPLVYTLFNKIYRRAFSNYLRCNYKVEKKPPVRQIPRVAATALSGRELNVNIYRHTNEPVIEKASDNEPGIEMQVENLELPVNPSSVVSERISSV

[7] = Bioavailability in Sprague-Dawley rat at 5 mg/kg, ig measured for 24 hrs by LC-MS/MS analysis; assay type: ADME, organism-based; details: in vivo, po
[8] = Cmax in Sprague-Dawley rat at 50 mg/kg, ig administered for 28 days by LC-MS/MS analysis; assay type: ADME, organism-based; design: route intragastric, time 28 day, dose 50 mg/kg; details: in vivo, po
[9] = biological target: 5-hydroxytryptamine receptor 2B (Homo sapiens, UniProt P41595); experiment: Binding affinity to human 5HT2B receptor
[10] = biological target: T3, 5-hydroxytryptamine receptor 1A (Homo sapiens, UniProt P08908); experiment: Binding affinity to human 5HT1A receptor
T3 sequence (P08908 whole entry): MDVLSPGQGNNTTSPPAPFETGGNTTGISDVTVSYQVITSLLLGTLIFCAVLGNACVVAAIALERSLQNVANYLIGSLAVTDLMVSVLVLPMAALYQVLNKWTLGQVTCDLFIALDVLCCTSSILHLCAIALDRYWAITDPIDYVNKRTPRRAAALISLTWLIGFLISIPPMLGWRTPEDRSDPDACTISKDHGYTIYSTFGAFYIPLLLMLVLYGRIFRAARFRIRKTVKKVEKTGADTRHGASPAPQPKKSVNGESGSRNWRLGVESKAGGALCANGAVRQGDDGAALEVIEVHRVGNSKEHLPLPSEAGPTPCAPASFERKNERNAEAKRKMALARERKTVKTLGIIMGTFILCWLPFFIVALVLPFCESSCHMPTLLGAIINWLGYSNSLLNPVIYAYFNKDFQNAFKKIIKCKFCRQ

[11] = Toxicity in ig dosed Sprague-Dawley rat administered for 28 days; assay type: organism-based; details: in vivo, po, time 28 day
[12] = Cmax in monkey at 1 mg/kg, ig administered for 28 days by LC-MS/MS analysis; assay type: ADME, organism-based, Macaca mulatta; design: route intragastric, dose 1 mg/kg, time 28 day; details: rhesus monkey, in vivo, po
[13] = biological target: T4, 5-hydroxytryptamine receptor 1F (Homo sapiens) (UniProt P30939); experiment: Potency index, ratio of lasmiditan EC50 to test compound EC50 for agonist activity at 5HT1F receptor (unknown origin) expressed in HEK293 cells measured after 60 mins by Fluo-4AM dye based FLIPR assay; assay type: functional, cell-based
T4 sequence (whole entry): T1 sequence (P30939 whole entry)

[14] = Cmax in Sprague-Dawley rat at 5 mg/kg, ig measured for 24 hrs by LC-MS/MS analysis; assay type: ADME, organism-based; design: route intragastric, time 24 hrs, dose 5 mg/kg; details: in vivo, po
[15] = Cmax in Sprague-Dawley rat at 150 mg/kg, ig administered for 28 days by LC-MS/MS analysis; assay type: ADME, organism-based; design: route intragastric, dose 150 mg/kg, time 28 day; details: in vivo, po
[16] = AUC (0 to 24hrs) in monkey at 1 mg/kg, ig by LC-MS/MS analysis; assay type: ADME, organism-based, Macaca mulatta; design: time < 24 hr, route intragastric, dose 1 mg/kg; details: rhesus monkey, in vivo, po
[17] = Half life in Sprague-Dawley rat at 1 mg/kg, iv measured for 24 hrs by LC-MS/MS analysis; assay type: ADME, organism-based; details: in vivo
[18] = AUC(0 to t) in Sprague-Dawley rat at 5 mg/kg, ig measured for 24 hrs by LC-MS/MS analysis; assay type: ADME, organism-based; design: time 24 hrs, dose 5 mg/kg; details: in vivo, po
Rattus norvegicus = experiment: Antimigraine activity against electrical stimulation of trigeminal ganglion migraine Wistar rat model assessed as reduction in c-Fos-positive cells at 10 ug/kg, po measured after 60 mins by confocal fluorescence microscopic analysis; assay type: functional, organism-based; details: dose 10.0 µg/kg
[19] = Half life in Sprague-Dawley rat at 5 mg/kg, ig measured for 24 hrs by LC-MS/MS analysis; assay type: ADME, organism-based; details: in vivo, po
Homo sapiens [20] = species: Homo sapiens; experiment: Selectivity ratio of IC50 for human 5HT2B receptor to IC50 for human 5HT1F receptor
Homo sapiens [21] = species: Homo sapiens; experiment: Selectivity ratio of IC50 for human 5HT3 receptor to IC50 for human 5HT1F receptor
[22] = Toxicity in Sprague-Dawley rat assessed as effect on food intake at 150 mg/kg/day, ig administered for 28 days; assay type: organism-based; details: in vivo, po, 672 h, time 28 day
Homo sapiens [23] = species: Homo sapiens; experiment: Selectivity ratio of IC50 for human 5HT2A receptor to IC50 for human 5HT1F receptor
[24] = biological target: 5-hydroxytryptamine receptor 1B (Homo sapiens, UniProt P28222); experiment: Binding affinity to human 5HT1B receptor
[25] = AUC (0 to 24hrs) in monkey at 25 mg/kg, ig by LC-MS/MS analysis; assay type: ADME, organism-based, Macaca mulatta; design: time < 24 hr, route intragastric, dose 25 mg/kg; details: rhesus monkey, in vivo, po

Chain of 5-hydroxytryptamine receptor 2A (P28223 whole entry): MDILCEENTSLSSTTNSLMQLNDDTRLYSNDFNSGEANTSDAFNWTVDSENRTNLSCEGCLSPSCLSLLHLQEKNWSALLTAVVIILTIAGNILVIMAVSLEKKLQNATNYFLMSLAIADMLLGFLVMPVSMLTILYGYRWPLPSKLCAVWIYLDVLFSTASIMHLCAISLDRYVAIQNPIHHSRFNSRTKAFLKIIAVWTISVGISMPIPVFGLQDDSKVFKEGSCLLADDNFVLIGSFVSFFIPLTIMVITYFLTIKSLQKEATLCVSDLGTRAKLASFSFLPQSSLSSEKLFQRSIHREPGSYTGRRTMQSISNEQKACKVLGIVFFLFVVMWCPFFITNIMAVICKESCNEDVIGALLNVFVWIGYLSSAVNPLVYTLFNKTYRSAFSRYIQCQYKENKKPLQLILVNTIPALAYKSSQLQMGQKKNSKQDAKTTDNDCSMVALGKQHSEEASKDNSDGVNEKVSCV
Chain of 5-hydroxytryptamine receptor 1B (P28222 whole entry): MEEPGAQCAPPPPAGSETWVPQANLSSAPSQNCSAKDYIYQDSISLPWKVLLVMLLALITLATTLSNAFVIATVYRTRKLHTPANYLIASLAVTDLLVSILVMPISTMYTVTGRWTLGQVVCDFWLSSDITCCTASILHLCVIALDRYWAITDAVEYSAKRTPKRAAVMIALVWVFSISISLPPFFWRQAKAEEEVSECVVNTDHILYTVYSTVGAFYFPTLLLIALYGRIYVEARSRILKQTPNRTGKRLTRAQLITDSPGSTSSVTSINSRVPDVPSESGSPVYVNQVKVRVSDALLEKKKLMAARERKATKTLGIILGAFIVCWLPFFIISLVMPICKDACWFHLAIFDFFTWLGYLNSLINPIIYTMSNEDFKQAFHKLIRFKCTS
Chain of 5-hydroxytryptamine receptor 2B (P41595 whole entry): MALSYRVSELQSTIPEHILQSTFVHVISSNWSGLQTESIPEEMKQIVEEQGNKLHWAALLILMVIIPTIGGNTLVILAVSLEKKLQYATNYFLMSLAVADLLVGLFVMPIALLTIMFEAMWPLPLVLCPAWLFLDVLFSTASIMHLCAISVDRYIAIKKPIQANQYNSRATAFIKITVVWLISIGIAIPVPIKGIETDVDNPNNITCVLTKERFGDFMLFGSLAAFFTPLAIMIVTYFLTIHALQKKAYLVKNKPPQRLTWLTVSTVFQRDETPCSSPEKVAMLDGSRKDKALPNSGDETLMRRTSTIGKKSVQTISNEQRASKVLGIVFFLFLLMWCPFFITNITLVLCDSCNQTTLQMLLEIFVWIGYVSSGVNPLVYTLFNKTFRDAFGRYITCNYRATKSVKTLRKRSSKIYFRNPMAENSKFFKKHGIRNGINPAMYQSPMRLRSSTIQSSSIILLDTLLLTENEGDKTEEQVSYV

IC50 [1]: 4.87 µM
clearance [2]: 127 mL/min/kg
Cmax [3]: 110 ng/mL
Ratio IC50 [4]: 472
IC50 [5]: 0.00032 µM
IC50 [6]: 7.06 µM
bioavailability [7]: 64%
Cmax [8]: 523 ng/mL
IC50 [9]: 8.61 µM
IC50 [10]: 0.151 µM
Cmax [12]: 764 ng/mL
Ratio EC50 [13]: 4
Cmax [14]: 88 ng/mL
Cmax [15]: 841 ng/mL
AUC(0-t) at 24 h [16]: 3200 ng·h/mL
half-life [17]: 1.33 h
AUC(0-t) at 24 h [18]: 404 ng·h/mL
half-life [19]: 2.95 h
Ratio IC50 (Homo sapiens [20]): > 10000
Ratio IC50 (Homo sapiens [21]): > 10000
Ratio IC50 (Homo sapiens [23]): > 10000
IC50 [24]: 2.16 µM
AUC(0-t) at 24 h [25]: 67400 ng·h/mL
Compound: CN1CCC(=C(F)c2cccc(NC(=O)c3c(F)cc(F)cc3F)n2)CC1
NOAEL at 672 h [11]: 50 mg/kg/day
Activity (Rattus norvegicus): Active
Activity [22]: Non-Toxic
